System: hepSC
Assay: Dasatinib withdrawal or replacement in hSC media, maintenance of hepSC stem cell state
Conditions: for survival of hepatic stem cells: ABL kinase inhibitor together with SRC inhibition, replacing Dasatinib; for rescue of phenotype after subculturing / rescue of cell phenotype: added instead of Dasatinib; for rescue of phenotype after subculturing: 48 hr after subculturing; for rescue of cell phenotype: 6 days after withdrawal; for rescue of cell morphology changes: replacement of Dasatinib with the inhibitor, 48 hrs

Structure (SMILES)	survival of hepatic stem cells	rescue of phenotype after subculturing	rescue of cell phenotype	rescue of cell morphology changes
Cc1cn(-c2cc(NC(=O)c3ccc(C)c(Nc4nccc(-c5cccnc5)n4)c3)cc(C(F)(F)F)c2)cn1 [Nilotinib]	seems to improved survival of hepatic stem cells	did not rescue the phenotype	did not rescue the cell phenotype	did not rescue cell morphology changes
Cc1ccc(NC(=O)c2ccc(CN3CCN(C)CC3)cc2)cc1Nc1nccc(-c2cccnc2)n1 [Imatinib]	seems to improved survival of hepatic stem cells	did not rescue the phenotype	did not rescue the cell phenotype	did not rescue cell morphology changes

Reference: patent US12104168B2, “Cell culture medium” (Agency For Science, Technology And Research, priority 2018, dated 2024)
